Measured values reported in patent publication US10508077B2 (FORMA Therapeutics, Inc., priority 2015, dated 2019).

Target: T1, Recombinant N-terminal GST tag full-length human HDAC8 (Homo sapiens, UniProt Q9BY41)
T1 construct: Recombinant N-terminal GST tag full-length human HDAC8; purchased SignalChem H90-30G-1000; host or cells: Sf9 insect cells (baculovirus)
T1 sequence (Q9BY41 1-377): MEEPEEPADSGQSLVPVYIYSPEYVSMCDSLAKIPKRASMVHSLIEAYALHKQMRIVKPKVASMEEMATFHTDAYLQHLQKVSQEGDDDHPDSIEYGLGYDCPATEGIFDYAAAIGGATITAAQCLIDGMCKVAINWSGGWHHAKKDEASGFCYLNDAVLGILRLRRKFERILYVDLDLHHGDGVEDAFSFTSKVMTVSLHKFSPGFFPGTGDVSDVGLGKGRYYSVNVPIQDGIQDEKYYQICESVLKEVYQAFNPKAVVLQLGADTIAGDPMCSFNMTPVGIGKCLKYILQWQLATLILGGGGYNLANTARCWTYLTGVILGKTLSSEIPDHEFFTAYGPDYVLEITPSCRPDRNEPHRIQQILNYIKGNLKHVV
Assay: HDAC8 probe binding assay, time resolved fluorescence (TRF)
Details: fluorescein labeled pan-HDAC inhibitor probe, 16 hours incubation, compounds listed under IC50 range headings
Experimental: The HDAC8 probe binding assay was performed using a time resolved fluorescence (TRF) assay format. Recombinant N-terminal GST tag full-length human HDAC8 was expressed and purified from baculovirus in Sf9 insect cells (SignalChem, #H90-30G-1000), Each assay was performed in 1536 black well microplates (Corning, #3936) in a final volume of 4 μL in assay buffer containing 50 mM HEPES (pH 7.5), 50 mM KCl, 50 mM NaCl, 0.5 mM GSH (L-Glutathione reduced, Sigma #G4251), 0.03% BGG (0.22 μM filtered, Sigma, #G7516-25G), and 0.01% Triton X-100 (Sigma, #T9284-10L). 20 nL of 10-point, 3-fold serial dilution in DMSO was pre-dispensed into respective wells of 1536 assay plates for a final test concentration range of 25 μM to 1.3 nM respectively. The final concentration in the assay of HDAC8 and probe (a fluorescein labeled pan-HDAC inhibitor) was 2.5 nM and 1.5 nM respectively. 2 μL of 2× probe and 2× anti-GST Terbium (Cisbio, #61GSTXLB) was added to assay plates followed by 2 μL of 2× HDAC8. Plates were incubated for 16 hours at room temperature before time resolved fluorescence was read on the Envision (Excitation at 340 nm, and Emission at 485 nm and 535 nm, Perkin Elmer).
Data from HDAC8 Assays were reported as percent inhibition (inh) compared with control wells based on the following equation: % inh=1−((FLU−AveLow)/(AveHigh−AveLow)) where FLU=measured time resolved fluorescence. AveLow=average time resolved fluorescence of no enzyme control (n=32). AveHigh=average time resolved fluorescence of DMSO control (n=32). IC50 values were determined by curve fitting of the standard 4 parameter logistic fitting algorithm included in the Activity Base software package: IDBS XE Designer Model205. Data is fitted using the Levenburg Marquardt algorithm.

Row | Compound | IC50 [µM]
1 | O=C(/C=C/c1ccccc1N1CCN(Cc2ccccc2)CC1=O)NO [Example I-495, (E)-3-(2-(4-benzyl-2-oxopiperazin-1-yl)phenyl)-N-hydroxyacrylamide] | ≤ 1
2 | O=C(/C=C/c1ccccc1N1CCN(c2ccc(F)cc2)C1=O)NO [Example I-501, (E)-3-(2-(3-(4-fluorophenyl)-2-oxoimidazolidin-1-yl)phenyl)-N-hydroxyacrylamide] | ≤ 1
3 | O=C(/C=C/c1ccccc1N1CCN(c2ccc(OC(F)(F)F)cc2)CC1=O)NO [Example I-503, (E)-N-hydroxy-3-(2-(2-oxo-4-(4-(trifluoromethoxy)phenyl)piperazin-1-yl)phenyl)acrylamide] | ≤ 1
4 | O=C(/C=C/c1ccccc1N1CCN(c2ccc(F)cc2)CC1=O)NO [Example I-504, (E)-3-(2-(4-(4-fluorophenyl)-2-oxopiperazin-1-yl)phenyl)-N-hydroxyacrylamide] | ≤ 1
5 | COc1cc(F)ccc1Oc1ccccc1C(=O)Nc1ccccc1/C=C/C(=O)NO [Example I-546, (E)-2-(4-fluoro-2-methoxyphenoxy)-N-(2-(3-(hydroxyamino)-3-oxoprop-1-en-1-yl)phenyl)benzamide] | ≤ 1
6 | Cn1cc(Oc2ccccc2C(=O)Nc2ccccc2/C=C/C(=O)NO)cn1 [Example I-548, N-{2-[(1E)-2-(hydroxycarbamoyl)eth-1-en-1-yl]phenyl}-2-[(1-methyl-1H-pyrazol-4-yl)oxy]benzamide] | ≤ 1
7 | O=C(/C=C/c1cc(Cl)ccc1NC(=O)c1ccccc1Oc1ccc(F)cc1)NO [Example I-549, N-{4-chloro-2-[(1E)-2-(hydroxycarbamoyl)eth-1-en-1-yl]phenyl}-2-(4-fluorophenoxy)benzamide] | ≤ 1
8 | CC(C)(C)OC(=O)N1CCCC12CN(c1ccccc1/C=C/C(=O)NO)C2 [Example I-550, tert-butyl (E)-2-(2-(3-(hydroxyamino)-3-oxoprop-1-en-1-yl)phenyl)-2,5-diazaspiro[3.4]octane-5-carboxylate] | ≤ 1
9 | COc1ccc(F)cc1Oc1ccccc1C(=O)Nc1ccccc1/C=C/C(=O)NO [Example I-551, 2-(5-fluoro-2-methoxyphenoxy)-N-{2-[(1E)-2-(hydroxycarbamoyl)eth-1-en-1-yl]phenyl}benzamide] | ≤ 1
10 | COc1cccc(Oc2ccccc2C(=O)Nc2ccccc2/C=C/C(=O)NO)c1 [Example I-552, N-{2-[(1E)-2-(hydroxycarbamoyl)eth-1-en-1-yl]phenyl}-2-(3-methoxyphenoxy)benzamide] | ≤ 1
11 | COc1cnccc1Oc1ccccc1C(=O)Nc1ccccc1/C=C/C(=O)NO [Example I-553, N-{2-[(1E)-2-(hydroxycarbamoyl)eth-1-en-1-yl]phenyl}-2-[(3-methoxypyridin-4-yl)oxy]benzamide] | ≤ 1
12 | O=C(/C=C/c1ccccc1N1CCCC12CN(C(=O)c1ccc(F)cc1)C2)NO [Example I-554, (E)-3-(2-(2-(4-fluorobenzoyl)-2,5-diazaspiro[3.4]octan-5-yl)phenyl)-N-hydroxyacrylamide] | 1 to 100
13 | O=C(/C=C/c1cc(F)ccc1NC(=O)c1ccccc1Oc1ccc(F)cc1)NO [Example I-555, N-{4-fluoro-2-[(1E)-2-(hydroxycarbamoyl)eth-1-en-1-yl]phenyl}-2-(4-fluorophenoxy)benzamide] | ≤ 1
14 | Cn1cc(Oc2ccccc2C(=O)Nc2ccc(F)cc2/C=C/C(=O)NO)cn1 [Example I-558, N-{4-fluoro-2-[(1E)-2-(hydroxycarbamoyl)eth-1-en-1-yl]phenyl}-2-[(1-methyl-1H-pyrazol-4-yl)oxy]benzamide] | ≤ 1
15 | COc1ccc(Oc2ccccc2C(=O)Nc2ccccc2/C=C/C(=O)NO)cc1 [Example I-559] | ≤ 1
16 | Cc1ccc(Oc2ccccc2C(=O)Nc2ccc(Cl)cc2/C=C/C(=O)NO)cn1 [Example I-560, N-{4-chloro-2-[(1E)-2-(hydroxycarbamoyl)eth-1-en-1-yl]phenyl}-2-[(6-methylpyridin-3-yl)oxy]benzamide] | ≤ 1

Row | Compound | IC50 [µM]
17 | O=C(/C=C/c1ccccc1N1CCCC12CN(C(=O)Cc1ccccc1)C2)NO [Example I-561, (E)-N-hydroxy-3-(2-(2-(2-phenylacetyl)-2,5-diazaspiro[3.4]octan-5-yl)phenyl)acrylamide] | ≤ 1
18 | O=C(/C=C/c1ccccc1N1CCCC12CN(C(=O)Cc1ccc(F)cc1)C2)NO [Example I-562] | ≤ 1
19 | O=C(/C=C/c1c(Cl)cccc1NC(=O)c1ccccc1Oc1ccc(F)cc1)NO [Example I-563, N-{3-chloro-2-[(1E)-2-(hydroxycarbamoyl)eth-1-en-1-yl]phenyl}-2-(4-fluorophenoxy)benazmide] | ≤ 1
20 | O=C(/C=C/c1ccc(Cl)cc1NC(=O)c1ccccc1Oc1ccc(F)cc1)NO [Example I-564, N-{5-chloro-2-[(1E)-2-(hydroxycarbamoyl)eth-1-en-1-yl]phenyl}-2-(4-fluorophenoxy)benzamide] | ≤ 1
21 | O=C(/C=C/c1ccccc1N1CCCC12CN(C(=O)C1CCCC1)C2)NO [Example I-565, (E)-3-(2-(2-(cyclopentanecarbonyl)-2,5-diazaspiro[3.4]octan-5-yl)phenyl)-N-hydroxyacrylamide] | ≤ 1
22 | O=C(/C=C/c1ccccc1N1CCCC12CN(C(=O)CC(F)(F)F)C2)NO [Example I-566, (E)-N-hydroxy-3-(2-(2-(3,3,3-trifluoropropanoyl)-2,5-diazaspiro[3.4]octan-5-yl)phenyl)acrylamide] | ≤ 1
23 | O=C(/C=C/c1ccccc1N1CCCC12CN(C(=O)C1CCCCC1)C2)NO [Example I-567, (E)-3-(2-(2-(cyclohexanecarbonyl)-2,5-diazaspiro[3.4]octan-5-yl)phenyl)-N-hydroxyacrylamide] | 1 to 100
24 | CC1(C(=O)N2CC3(CCCN3c3ccccc3/C=C/C(=O)NO)C2)CCCCC1 [Example I-568, (E)-N-hydroxy-3-(2-(2-(1-methylcyclohexane-1-carbonyl)-2,5-diazaspiro[3.4]octan-5-yl)phenyl)acrylamide] | ≤ 1
25 | CC(C)(C)C(=O)N1CC2(CCCN2c2ccccc2/C=C/C(=O)NO)C1 [Example I-569] | ≤ 1
26 | O=C(/C=C/c1cc(Cl)ccc1NC(=O)c1cccnc1Oc1ccccc1)NO [Example I-570, N-{4-chloro-2-[(1E)-2-(hydroxycarbamoyl)eth-1-en-1-yl]phenyl}-2-phenoxypyridine-3-carboxamide] | ≤ 1
27 | O=C(/C=C/c1cc(Cl)ccc1NC(=O)c1cccnc1Oc1ccc(Cl)cc1)NO [Example I-572, N-{4-chloro-2-[(1E)-2-(hydroxycarbamoyl)eth-1-en-1-yl]phenyl}-2-(4-chlorophenoxy)pyridine-3-carboxamide] | ≤ 1
28 | COc1ccc(Oc2ccccc2C(=O)Nc2ccc(Cl)cc2/C=C/C(=O)NO)cc1 [Example I-573, N-{4-chloro-2-[(1E)-2-(hydroxycarbamoyl)eth-1-en-1-yl]phenyl}-2-(4-methoxyphenoxy)benzamide] | ≤ 1
29 | O=C(/C=C/c1ccccc1N1CCC2(CCCN2C(=O)c2ccc(F)cc2)C1)NO (centres unmarked) [Example I-575, (E)-3-(2-(1-(4-fluorobenzoyl)-1,7-diazaspiro[4.4]nonan-7-yl)phenyl)-N-hydroxyacrylamide] | ≤ 1
30 | O=C(/C=C/c1ccccc1N1CCC2(CCCN2C(=O)CC(F)(F)F)C1)NO (centres unmarked) [Example I-576, (E)-N-hydroxy-3-(2-(1-(3,3,3-trifluoropropanoyl)-1,7-diazaspiro[4.4]nonan-7-yl)phenyl)acrylamide] | ≤ 1
31 | O=C(/C=C/c1ccccc1N1CCC2(CCCN2C(=O)Cc2ccccc2)C1)NO (centres unmarked) [Example I-579, (E)-N-hydroxy-3-(2-(1-(2-phenylacetyl)-1,7-diazaspiro[4.4]nonan-7-yl)phenyl)acrylamide] | 1 to 100
32 | O=C(/C=C/c1ccccc1N1CCN(c2ccc(Cl)c(C(F)(F)F)c2)CC1=O)NO [Example I-582, (E)-3-(2-(4-(4-chloro-3-(trifluoromethyl)phenyl)-2-oxopiperazin-1-yl)phenyl)-N-hydroxyacrylamide] | 1 to 100
